{
  "source": "paper PMC5267425",
  "about": "“Identification of small molecule modulators of HIV-1 Tat and Rev protein accumulation” (Retrovirology, 2017)",
  "test_system": "alternative splicing of host transcripts in HeLa rtTA HIV∆Mls cells",
  "assay": "RT-PCR of host alternative splicing events (PSI), capillary electrophoresis",
  "assay_type": "cell-based",
  "parameters": "PSI ZNF827_1 / PSI RAN_1 / PSI SEC24B_1 / PSI SMN2_1 / PSI TRIM37_1 / PSI RPS24_1 / PSI PDCL_1 / PSI SMN2_2 / PSI SETD5_1 / PSI RAI14_1 / PSI TPM1_1 / PSI SPAG9_1 / PSI POLDIP3_1 / PSI SRPK2_1 / PSI POMT1_1: concentration or dose not given beside the values",
  "method": "To assess the effect of compounds on expression/alternative splicing of cellular RNA, two approaches were used. For both, total RNA was prepared from DMSO or compound-treated cells. In the first assay, samples were assayed by medium throughput RT-PCR to determine the inclusion levels of alternatively spliced exons and splice sites located in 73 selected events. 73 primer sets containing a fluorescently (5-FAM) labeled primer for each, were used in RT-PCR. PCR products generated were denatured in formamide and quantified using ABI Prism capillary sequencer (Life Technologies). The fragment analysis was performed on the PeakScanner software (Life Technologies) in batch mode and automated using custom scripts written in Python. The inclusion level of each exon was calculated as the amount of transcripts carrying the alternative exon relative to the total amount of all transcripts detected in the PCR reaction and results are summarized for compound-treatment in comparison to DMSO treatment. In the second assay, extracted RNA was processed using the Illumina TruSeq RNA Sample Preparation Kit (Illumina) according to the manufacturer’s instructions. The cDNA library generated was validated (passed quality control on a Bioanalyzer 1000 DNA chip (Agilent)), normalized and pooled for cluster generation. cDNA libraries were sequenced on the Illumina HiSeq 2500 (paired-end, 125 bp) with version 4 chemistry following manufacturer’s protocols. The full human genome and transcriptomic sequences were downloaded from the UCSC Genome Browser (genome.ucsc.edu) database and Ensembl (www.ensembl.org), respectively, as described by Irimia et al.. Exon annotations and genomic coordinates for alternative splicing (AS) analysis were derived from tables downloaded from the UCSC Genome Browser database. To determine gene expression (GE) or alternative splicing (AS) changes in an unbiased way, the effective number of unique mappable positions in each transcript (i.e. the effective length) was determined by aligning sequences with unique transcriptomic alignment to the human genome using Bowtie. Reads with one unique genomic alignment were then aligned against the canonical transcriptome and, for each transcript, the number of reads with one unique transcriptomic alignment were counted. The expression level of genes was quantified as corrected ‘reads per kilobase of exon model per million mapped reads’ (cRPKM), a widely used metric to estimate gene expression levels. The expression cutoff was 0.5 cRPKM, corresponding to the transcript of the gene being present if there were ≥10 reads that mapped uniquely to a single genomic locus. Approximately 19,847 Ensembl annotated protein-coding genes were compared to create a gene list of differentially expressed genes. Genes were considered differentially expressed if fold changes in cRPKM was ≥2 in compound-treated versus DMSO-treated samples.",
  "note": "Where “and” joins values, the source holds several entries; their conditions need not be identical. Identical values can stand only once.",
  "data": [
    {"smiles": "COc1ccc(C=NNC(=O)c2ccccc2O)cc1O", "note": "[Compound 892, 2-hydroxy-N′-(3-hydroxy-4-methoxybenzylidene)benzohydrazide]", "values": [
      {"measurement": "DPSI EIF4A2_1", "setting": "chr7:187988792-187988899, mean PSI 5193892 minus DMSO, n=3, P Value 0.014", "result": 13.67, "unit": "%"},
      {"measurement": "PSI EIF4A2_1", "setting": "chr7:187988899-187988904, HeLa rtTA-HIV-DMls cells, replicates 25, 26, 27", "result": "22.00 and 26.00 and 31.00"},
      {"measurement": "DPSI EIF4A2_1", "setting": "chr7:187988899-187988904, mean PSI 5193892 minus DMSO, n=3, P Value 0.035", "result": 8.33, "unit": "%"},
      {"measurement": "PSI PDCL_1", "setting": "chr9:124628716-124628892, HeLa rtTA-HIV-DMls cells, replicates 25, 26, 27", "result": "90.00 and 91.00 and 93.00"},
      {"measurement": "DPSI PDCL_1", "setting": "chr9:124628716-124628892, mean PSI 5193892 minus DMSO, n=3, P Value 0.152", "result": 1.67, "unit": "%"},
      {"measurement": "PSI GM130_1", "setting": "chr9:130069293-130069374, HeLa rtTA-HIV-DMls cells, replicates 25, 26, 27", "result": "23.00 and 18.00 and 15.00"},
      {"measurement": "DPSI GM130_1", "setting": "chr9:130069293-130069374, mean PSI 5193892 minus DMSO, n=3, P Value 0.007", "result": -14.33, "unit": "%"},
      {"measurement": "PSI POMT1_1", "setting": "chr9:133368281-133368521, HeLa rtTA-HIV-DMls cells, replicates 25, 26, 27", "result": "50.00 and 37.00 and 28.00"},
      {"measurement": "DPSI POMT1_1", "setting": "chr9:133368281-133368521, mean PSI 5193892 minus DMSO, n=3, P Value 0.626", "result": -4.00, "unit": "%"},
      {"measurement": "PSI POMT1_1", "setting": "chr9:133371321-133371428, HeLa rtTA-HIV-DMls cells, replicates 25, 26, 27", "result": "95.00 and 94.00 and 63.00"},
      {"measurement": "DPSI POMT1_1", "setting": "chr9:133371321-133371428, mean PSI 5193892 minus DMSO, n=3, P Value 0.627", "result": -5.67, "unit": "%"},
      {"measurement": "PSI RPS24_1", "setting": "chr10:79467729-79467746, HeLa rtTA-HIV-DMls cells, replicates 25, 26, 27", "result": "8.00 and 13.00 and 12.00"},
      {"measurement": "DPSI RPS24_1", "setting": "chr10:79467729-79467746, mean PSI 5193892 minus DMSO, n=3, P Value 0.079", "result": 3.67, "unit": "%"},
      {"measurement": "PSI ADD3_1", "setting": "chr10:111882053-111882148, HeLa rtTA-HIV-DMls cells, replicates 25, 26, 27", "result": "42.00 and 60.00 and 62.00"},
      {"measurement": "DPSI ADD3_1", "setting": "chr10:111882053-111882148, mean PSI 5193892 minus DMSO, n=3, P Value 0.701", "result": 3.33, "unit": "%"},
      {"measurement": "PSI CTNND1_1", "setting": "chr11:57318058-57318129, HeLa rtTA-HIV-DMls cells, replicates 25, 26, 27", "result": "82.00 and 76.00 and 100.00"},
      {"measurement": "PSI APLP2_1", "setting": "chr11:129498717-129498884, HeLa rtTA-HIV-DMls cells, replicates 25, 26, 27", "result": "15.00 and 18.00 and 19.00"},
      {"measurement": "DPSI APLP2_1", "setting": "chr11:129498717-129498884, mean PSI 5193892 minus DMSO, n=3, P Value 0.009", "result": -6.00, "unit": "%"},
      {"measurement": "PSI ERC1_1", "setting": "chr12:1091641-1091725, HeLa rtTA-HIV-DMls cells, replicates 25, 26, 27", "result": "36.00 and 55.00 and 52.00"},
      {"measurement": "PSI FGFR1OP2_1", "setting": "chr12:27004715-27004828, HeLa rtTA-HIV-DMls cells, replicates 25, 26, 27", "result": "22.00 and 15.00 (2×)"},
      {"measurement": "DPSI FGFR1OP2_1", "setting": "chr12:27004715-27004828, mean PSI 5193892 minus DMSO, n=3, P Value 0.030", "result": -11.67, "unit": "%"},
      {"measurement": "PSI DNM1L_1", "setting": "chr12:32782066-32782143, HeLa rtTA-HIV-DMls cells, replicates 25, 26, 27", "result": "24.00 and 37.00 and 39.00"},
      {"measurement": "PSI DNM1L_1", "setting": "chr12:32782465-32782497, HeLa rtTA-HIV-DMls cells, replicates 25, 26, 27", "result": "38.00 and 52.00 and 53.00"},
      {"measurement": "DPSI DNM1L_1", "setting": "chr12:32782465-32782497, mean PSI 5193892 minus DMSO, n=3, P Value 0.447", "result": -5.67, "unit": "%"},
      {"measurement": "PSI NAP1L1_1", "setting": "chr12:74747418-74747520, HeLa rtTA-HIV-DMls cells, replicates 25, 26, 27", "result": "76.00 and 78.00 and 83.00"},
      {"measurement": "DPSI NAP1L1_1", "setting": "chr12:74747418-74747520, mean PSI 5193892 minus DMSO, n=3, P Value 0.123", "result": -5.67, "unit": "%"},
      {"measurement": "PSI NAP1L1_1", "setting": "chr12:74748956-74749041, HeLa rtTA-HIV-DMls cells, replicates 25, 26, 27", "result": "76.00 and 75.00 and 79.00"},
      {"measurement": "DPSI NAP1L1_1", "setting": "chr12:74748956-74749041, mean PSI 5193892 minus DMSO, n=3, P Value 0.018", "result": -7.00, "unit": "%"},
      {"measurement": "PSI MVK_1", "setting": "chr12:108501990-108502134, HeLa rtTA-HIV-DMls cells, replicates 25, 26, 27", "result": "78.00 and 100.00 (2×)"},
      {"measurement": "DPSI MVK_1", "setting": "chr12:108501990-108502134, mean PSI 5193892 minus DMSO, n=3, P Value 0.179", "result": 16.00, "unit": "%"},
      {"measurement": "PSI MVK_1", "setting": "chr12:108503583-108503738, HeLa rtTA-HIV-DMls cells, replicates 25, 26, 27", "result": "64.00 and 74.00 and 45.00"},
      {"measurement": "DPSI MVK_1", "setting": "chr12:108503583-108503738, mean PSI 5193892 minus DMSO, n=3, P Value 0.477", "result": 8.33, "unit": "%"},
      {"measurement": "PSI RAN_1", "setting": "chr12:129923082-129923127, HeLa rtTA-HIV-DMls cells, replicates 25, 26, 27", "result": "93.00 (2×) and 94.00"},
      {"measurement": "DPSI RAN_1", "setting": "chr12:129923082-129923127, mean PSI 5193892 minus DMSO, n=3, P Value 0.018", "result": -4.67, "unit": "%"},
      {"measurement": "PSI MBNL2_1", "setting": "chr13:96807051-96807104, HeLa rtTA-HIV-DMls cells, replicates 25, 26, 27", "result": "11.00 and 30.00 and 29.00"},
      {"measurement": "DPSI MBNL2_1", "setting": "chr13:96807051-96807104, mean PSI 5193892 minus DMSO, n=3, P Value 0.187", "result": 10.33, "unit": "%"}
    ]}
  ]
}
